Results: PMC4971072, “Chemically Homogenous Compounds with Antagonistic Properties at All α1-Adrenoceptor Subtypes but not β1-Adrenoceptor Attenuate Adrenaline-Induced Arrhythmia in Rats” (Frontiers in Pharmacology, 2016)
Counter-ions that a name gives are not always drawn. Marks after values point to notes of the source that are not given here.

Columns and labels:
[1] = target: α1-adrenoceptor; assay: α1-adrenoceptor radioligand binding assay ([3H]-prazosin, rat cerebral cortex); conditions: read-out: Adrenergic receptors Ki α1
Method: (§1) The α1- and β1-adrenoceptor radioligand binding assay was performed on rat cerebral cortex. […] The cell pellet was resuspended in the Tris–HCl buffer and centrifuged again. Radioligand binding assays were performed in plates (MultiScreen/Millipore). […] The incubation was terminated by rapid filtration through glass fiber filters (Whatman GF/C) using a vacuum manifold (Millipore). The filters were then washed twice with the assay buffer and placed in scintillation vials with a liquid scintillation cocktail. […] All the assays were made in duplicate and the inhibitory constants (Ki) were estimated.
(§2) LO–labeled ligand concentration, KD–dissociation constant of labeled ligand

[2] = target: T1, β1-adrenergic receptor (Rattus norvegicus, UniProt P18090); assay: β1-adrenoceptor radioligand binding assay ([3H]-CGP-12177, rat cerebral cortex); conditions: read-out: Adrenergic receptors Ki β1
T1 construct: The brains were homogenized in 20 volumes of an ice-cold 50 mM Tris-HCl buffer; from tissue; host or cells: rat cerebral cortex membranes
T1 sequence (P18090 whole entry): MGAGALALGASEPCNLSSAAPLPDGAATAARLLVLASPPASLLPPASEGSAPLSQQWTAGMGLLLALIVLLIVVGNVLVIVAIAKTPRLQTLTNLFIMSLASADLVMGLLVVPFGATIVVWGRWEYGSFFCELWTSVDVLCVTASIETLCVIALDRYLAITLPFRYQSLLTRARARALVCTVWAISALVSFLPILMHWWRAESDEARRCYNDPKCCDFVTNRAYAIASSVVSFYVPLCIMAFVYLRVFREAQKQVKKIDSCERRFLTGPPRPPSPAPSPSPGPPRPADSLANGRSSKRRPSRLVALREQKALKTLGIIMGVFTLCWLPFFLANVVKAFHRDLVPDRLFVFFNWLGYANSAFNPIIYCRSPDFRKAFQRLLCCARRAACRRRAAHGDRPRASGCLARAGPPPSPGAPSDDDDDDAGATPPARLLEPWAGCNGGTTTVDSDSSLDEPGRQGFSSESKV
Method: as §1, §2

[3] = system: normal ECG in rats; assay: The effect on normal electrocardiogram in rats; assay type: in vivo, rat; conditions: anesthetized rats; for influence on ECG parameters (PQ interval, QRS complex, QTc interval) / Beats/min (ECG) / PQ (ECG) / QRS (ECG) / QT (ECG) / QTc (ECG, Bazett): i.p. at ED84
Method: The experiment was carried out to exclude the influence of tested compounds on normal ECG. […] The influence on QRS complex, PQ interval, heart rate (RR), and QTc interval was determined.

[4] = system: adrenaline-induced arrhythmia in rats; assay: Prophylactic antiarrhythmic activity in adrenaline-induced arrhythmia; assay type: in vivo, rat; conditions: for ED50: Rattus norvegicus, read-out: ED50 (confidence limits)
Method: The studied compounds were administered i.p. 45 min before the injection of adrenaline, calcium chloride, or barium chloride. The electrocardiogram (ECG) was recorded during the first 2 min as well as in the 5th, 10th, and 15th min after the arrhythmogen injection. […]

[5] = system: lipid peroxidation in rat brain homogenate; assay: Lipid peroxidation in rat brain homogenate (TBARS), antioxidant effect; assay type: biochemical; conditions: 10^−3 M; for % reduction of absorbance (% antioxidant activity) / Absorbance: TBARs at 532 nm
Method: The rat brain homogenate containing 10 mg tissue/ml was prepared in 0.9% saline. The rates of membrane lipid peroxidation were measured by the formation of thiobarbituric acid reactive substances (TBARS). Rat brain homogenates (1 ml) were incubated at 37°C for 5 min with 10 μl of a tested compound or vehicle. Lipid peroxidation was initiated by the addition of 50 μl of 0.5 mM FeCl2 and 50 μl of 2.0 mM ascorbic acid. After 30 min of incubation, the reaction was stopped by adding 0.1 ml of 0.2% butylated hydroxytoluene (BHT). Thiobarbituric acid reagent was then added and the mixture was heated for 15 min in a boiling water bath.

[6] = dose 0.1 mg/kg i.p. 45 min before adrenaline 20 μg/kg i.v.
[7] = dose 0.2 mg/kg i.p. 45 min before adrenaline 20 μg/kg i.v.
[8] = dose 0.3 mg/kg i.p. 45 min before adrenaline 20 μg/kg i.v.
[9] = dose 2.5 mg/kg i.p. 45 min before adrenaline 20 μg/kg i.v.
[10] = dose 5 mg/kg i.p. 45 min before adrenaline 20 μg/kg i.v.
[11] = dose 10 mg/kg i.p. 45 min before adrenaline 20 μg/kg i.v.

With `COc1ccccc1N1CCN(CCCOc2cc(C)cc(C)c2C)CC1` [HBK-19, 1N-[3-(2,3,5-trimethylphenoxy)propyl]-4N-(2-methoxyphenyl)piperazine hydrochloride] the Ki [1] was 22.7 nM, the Ki [2] was over 10 µM and the “influence on ECG parameters (PQ interval, QRS complex, QTc interval)” value [3] was “without the influence on PQ interval, QRS complex, or QTc interval”. For the same compound, the “reduction of heart rate” value ([3]; i.p. at ED84, over the period of significant effect vs. initial values) was 21−22%, the “Beats/min (ECG)” value ([3]; 0 min (initial values)) was 355.3 ± 19.7 Beats/min and the “PQ (ECG)” value ([3]; 0 min (initial values)) was 56.7 ± 0.7 ms. The “QRS (ECG)” value ([3]; 0 min (initial values)) was 35.7 ± 1.0 ms, the “QT (ECG)” value ([3]; 0 min (initial values)) was 76.4 ± 8.2 ms and the “QTc (ECG, Bazett)” value ([3]; 0 min (initial values)) was 186.9 ± 24.6 ms. For the same compound, the “Beats/min (ECG)” value ([3]; 5 min) was 349.7 ± 25.3 Beats/min, the “PQ (ECG)” value ([3]; 5 min) was 56.6 ± 0.0 ms and the “QRS (ECG)” value ([3]; 5 min) was 34.7 ± 1.6 ms. The “QT (ECG)” value ([3]; 5 min) was 76.9 ± 1.1 ms, the “QTc (ECG, Bazett)” value ([3]; 5 min) was 185.5 ± 9.5 ms and the “Beats/min (ECG)” value ([3]; 10 min) was 339.1 ± 21.0 Beats/min. For the same compound, the “PQ (ECG)” value ([3]; 10 min) was 56.0 ± 0.0 ms, the “QRS (ECG)” value ([3]; 10 min) was 34.0 ± 0.3 ms and the “QT (ECG)” value ([3]; 10 min) was 77.5 ± 0.5 ms. The “QTc (ECG, Bazett)” value ([3]; 10 min) was 184.2 ± 6.9 ms, the “Beats/min (ECG)” value ([3]; 15 min) was 280.1 ± 1.1^c Beats/min and the “PQ (ECG)” value ([3]; 15 min) was 58.2 ± 1.8 ms. The “QRS (ECG)” value ([3]; 15 min) was 32.0 ± 1.2 ms, the “QT (ECG)” value ([3]; 15 min) was 82.2 ± 2.2 ms and the “QTc (ECG, Bazett)” value ([3]; 15 min) was 177.6 ± 4.4 ms. For the same compound, the “Beats/min (ECG)” value ([3]; 20 min) was 277.2 ± 5.0^c Beats/min, the “PQ (ECG)” value ([3]; 20 min) was 60.1 ± 1.3 ms and the “QRS (ECG)” value ([3]; 20 min) was 32.7 ± 0.4 ms. For the same compound, the “QT (ECG)” value ([3]; 20 min) was 84.3 ± 1.1 ms, the “QTc (ECG, Bazett)” value ([3]; 20 min) was 181.1 ± 4.1 ms and the “Beats/min (ECG)” value ([3]; 30 min) was 278.2 ± 6.7^c Beats/min. The “PQ (ECG)” value ([3]; 30 min) was 60.1 ± 1.7 ms, the “QRS (ECG)” value ([3]; 30 min) was 34.3 ± 0.2 ms and the “QT (ECG)” value ([3]; 30 min) was 82.2 ± 0.4 ms. The “QTc (ECG, Bazett)” value ([3]; 30 min) was 177.0 ± 3.0 ms, the “Beats/min (ECG)” value ([3]; 40 min) was 332.8 ± 18.9 Beats/min and the “PQ (ECG)” value ([3]; 40 min) was 59.3 ± 0.7 ms. For the same compound, the “QRS (ECG)” value ([3]; 40 min) was 32.0 ± 3.1 ms, the “QT (ECG)” value ([3]; 40 min) was 81.5 ± 2.5 ms and the “QTc (ECG, Bazett)” value ([3]; 40 min) was 192.2 ± 11.2 ms. For the same compound, the “Beats/min (ECG)” value ([3]; 50 min) was 396.8 ± 31.8 Beats/min, the “PQ (ECG)” value ([3]; 50 min) was 55.1 ± 0.3 ms and the “QRS (ECG)” value ([3]; 50 min) was 36.0 ± 1.5 ms. For the same compound, the “QT (ECG)” value ([3]; 50 min) was 76.5 ± 0.5 ms, the “QTc (ECG, Bazett)” value ([3]; 50 min) was 196.2 ± 6.9 ms and the “Beats/min (ECG)” value ([3]; 60 min) was 398.0 ± 32.4 Beats/min. For the same compound, the “PQ (ECG)” value ([3]; 60 min) was 56.3 ± 1.1 ms, the “QRS (ECG)” value ([3]; 60 min) was 30.3 ± 1.1 ms and the “QT (ECG)” value ([3]; 60 min) was 80.2 ± 0.4 ms. For the same compound, the “QTc (ECG, Bazett)” value ([3]; 60 min) was 206.3 ± 9.6 ms, the ED50 [4] was 0.21 mg/kg and the “Bigeminy (%)” value [4, 6] was 33.3%. The “Blocks (%)” value [4, 6] was 50.0%, the “Bradycardia (%)” value [4, 6] was 66.7% and the “Extrasystoles (%)” value [4, 6] was 66.7%. The “Bigeminy (%)” value [4, 7] was 16.7%, the “Blocks (%)” value [4, 7] was 33.3% and the “Bradycardia (%)” value [4, 7] was 33.3%. For the same compound, the “Extrasystoles (%)” value [4, 7] was 50.0%, the “Blocks (%)” value [4, 8] was 16.7% and the “Bradycardia (%)” value [4, 8] was 16.7%. For the same compound, the “Extrasystoles (%)” value [4, 8] was 16.7%, the “inhibition of lipid peroxidation (in words)” value [5] was “inhibited lipid peroxidation” and the “% reduction of absorbance (% antioxidant activity)” value [5] was 22.62%. It also gave an Absorbance [5] of 0.698 ± 0.007.
With `COc1ccccc1N1CCN(CCOCCOc2c(C)cccc2C)CC1.Cl` [HBK-14, 1-[(2,6-dimethylphenoxy)ethoxyethyl]-4-(2-methoxyphenyl)piperazine hydrochloride] the “influence on ECG parameters (PQ interval, QRS complex, QTc interval)” value [3] was “did not influence the ECG parameters”, the “Beats/min (ECG)” value ([3]; 0 min (initial values)) was 366.0 ± 10.8 Beats/min and the “PQ (ECG)” value ([3]; 0 min (initial values)) was 47.1 ± 1.1 ms. The “QRS (ECG)” value ([3]; 0 min (initial values)) was 26.1 ± 0.7 ms, the “QT (ECG)” value ([3]; 0 min (initial values)) was 85.8 ± 1.3 ms and the “QTc (ECG, Bazett)” value ([3]; 0 min (initial values)) was 211.7 ± 3.2 ms. The “Beats/min (ECG)” value ([3]; 5 min) was 369.8 ± 10.0 Beats/min, the “PQ (ECG)” value ([3]; 5 min) was 46.0 ± 1.0 ms and the “QRS (ECG)” value ([3]; 5 min) was 25.8 ± 0.5 ms. For the same compound, the “QT (ECG)” value ([3]; 5 min) was 85.0 ± 4.1 ms, the “QTc (ECG, Bazett)” value ([3]; 5 min) was 209.2 ± 8.3 ms and the “Beats/min (ECG)” value ([3]; 10 min) was 367.0 ± 9.9 Beats/min. The “PQ (ECG)” value ([3]; 10 min) was 46.3 ± 0.9 ms, the “QRS (ECG)” value ([3]; 10 min) was 27.6 ± 1.0 ms and the “QT (ECG)” value ([3]; 10 min) was 88.7 ± 1.9 ms. The “QTc (ECG, Bazett)” value ([3]; 10 min) was 214.8 ± 5.0 ms, the “Beats/min (ECG)” value ([3]; 15 min) was 359.8 ± 9.5 Beats/min and the “PQ (ECG)” value ([3]; 15 min) was 47.5 ± 1.3 ms. For the same compound, the “QRS (ECG)” value ([3]; 15 min) was 27.0 ± 0.6 ms, the “QT (ECG)” value ([3]; 15 min) was 89.0 ± 2.4 ms and the “QTc (ECG, Bazett)” value ([3]; 15 min) was 212.9 ± 5.7 ms. The “Beats/min (ECG)” value ([3]; 20 min) was 358.4 ± 11.4 Beats/min, the “PQ (ECG)” value ([3]; 20 min) was 46.3 ± 1.0 ms and the “QRS (ECG)” value ([3]; 20 min) was 26.3 ± 0.4 ms. For the same compound, the “QT (ECG)” value ([3]; 20 min) was 88.2 ± 2.9 ms, the “QTc (ECG, Bazett)” value ([3]; 20 min) was 212.5 ± 4.6 ms and the “Beats/min (ECG)” value ([3]; 30 min) was 359.8 ± 9.6 Beats/min. For the same compound, the “PQ (ECG)” value ([3]; 30 min) was 48.8 ± 1.9 ms, the “QRS (ECG)” value ([3]; 30 min) was 26.7 ± 0.9 ms and the “QT (ECG)” value ([3]; 30 min) was 89.6 ± 1.7 ms. The “QTc (ECG, Bazett)” value ([3]; 30 min) was 214.1 ± 5.0 ms, the “Beats/min (ECG)” value ([3]; 40 min) was 362.6 ± 11.9 Beats/min and the “PQ (ECG)” value ([3]; 40 min) was 48.2 ± 2.1 ms. For the same compound, the “QRS (ECG)” value ([3]; 40 min) was 26.1 ± 0.4 ms, the “QT (ECG)” value ([3]; 40 min) was 89.0 ± 2.1 ms and the “QTc (ECG, Bazett)” value ([3]; 40 min) was 214.1 ± 5.2 ms. For the same compound, the “Beats/min (ECG)” value ([3]; 50 min) was 361.6 ± 12.6 Beats/min, the “PQ (ECG)” value ([3]; 50 min) was 47.3 ± 1.6 ms and the “QRS (ECG)” value ([3]; 50 min) was 26.7 ± 1.0 ms. For the same compound, the “QT (ECG)” value ([3]; 50 min) was 87.9 ± 1.2 ms, the “QTc (ECG, Bazett)” value ([3]; 50 min) was 210.9 ± 5.1 ms and the “Beats/min (ECG)” value ([3]; 60 min) was 364.6 ± 11.2 Beats/min. For the same compound, the “PQ (ECG)” value ([3]; 60 min) was 48.4 ± 0.9 ms, the “QRS (ECG)” value ([3]; 60 min) was 27.5 ± 0.7 ms and the “QT (ECG)” value ([3]; 60 min) was 89.5 ± 2.4 ms. The “QTc (ECG, Bazett)” value ([3]; 60 min) was 214.1 ± 4.2 ms, the ED50 [4] was 3.88 mg/kg and the “Bigeminy (%)” value [4, 9] was 50.0%. The “Blocks (%)” value [4, 9] was 83.3%, the “Bradycardia (%)” value [4, 9] was 83.3% and the “Extrasystoles (%)” value [4, 9] was 100.0%. The “Bigeminy (%)” value [4, 10] was 33.3%, the “Blocks (%)” value [4, 10] was 33.3% and the “Bradycardia (%)” value [4, 10] was 50.0%. The “Extrasystoles (%)” value [4, 10] was 50.0%, the “Bigeminy (%)” value [4, 11] was 16.7% and the “Blocks (%)” value [4, 11] was 33.3%. The “Bradycardia (%)” value [4, 11] was 50.0%, the “Extrasystoles (%)” value [4, 11] was 16.7% and the “inhibition of lipid peroxidation (in words)” value [5] was “inactive”. For the same compound, the “% reduction of absorbance (% antioxidant activity)” value [5] was −4.10% and the Absorbance [5] was 0.939 ± 0.007.
